Reference: patent publication US11806342B2, “Diiodohydroxyquinoline for the treatment of clostridium difficile infection” (Purdue Research Foundation, priority 2019, dated 2023)
≈ marks a conversion by molar mass, not a printed value.

Assays:
Type in all cases: cell-based, Clostridium difficile
C. difficile P5 = assay: MIC and MBC, broth microdilution; conditions: Clostridioides difficile, C. difficile P5; for MBC: read-out: MBC; for MIC: read-out: MIC
Method: (§1) Antibacterial activity of Diiodohydroxyquinoline against a wide panel of Clostridium difficile strains. […] MIC50 and MIC90 are the minimum concentration of each agent that inhibited growth of 50% and 90% of the tested isolates, respectively. The minimum bactericidal concentration (MBC) of these drugs was tested by plating 5 μL from wells with no growth onto BHIS agar plates. The MBC was categorized as the lowest concentration that reduced bacterial growth by 99.9% MIC50 and MIC90 are the minimum concentration of each agent that inhibited the growth of 50% and 90% of the tested isolates, respectively. The minimum bactericidal concentration (MBC) of these drugs was tested by plating 5 μL from wells with no growth onto BHIS agar plates. The MBC was categorized as the lowest concentration that reduced bacterial growth by 99.9% [29-31].

C. difficile NR-49278 = assay: MIC and MBC, broth microdilution; conditions: Clostridioides difficile, NR49278, C. difficile NR-49278; for MBC: read-out: MBC; for MIC: read-out: MIC
Method: as §1

C. difficile I11 = assay: MIC and MBC, broth microdilution; conditions: Clostridioides difficile, C. difficile I11; for MBC: read-out: MBC; for MIC: read-out: MIC
Method: as §1

C. difficile I13 = assay: MIC and MBC, broth microdilution; conditions: Clostridioides difficile, C. difficile I13; for MBC: read-out: MBC; for MIC: read-out: MIC
Method: as §1

C. difficile P30 = assay: MIC and MBC, broth microdilution; conditions: Clostridioides difficile, C. difficile P30; for MBC: read-out: MBC; for MIC: read-out: MIC
Method: as §1

C. difficile I6 [1] = assay: MIC and MBC, broth microdilution; conditions: Clostridioides difficile, C. difficile I6; for MBC: read-out: MBC; for MIC: read-out: MIC
Method: as §1

C. difficile I10 = assay: MIC and MBC, broth microdilution; conditions: Clostridioides difficile, C. difficile I10; for MBC: read-out: MBC; for MIC: read-out: MIC
Method: as §1

C. difficile NR-49288 = assay: MIC and MBC, broth microdilution; conditions: Clostridioides difficile, NR49288, C. difficile NR-49288; for MBC: read-out: MBC; for MIC: read-out: MIC
Method: as §1

C. difficile HM-745 = assay: MIC and MBC, broth microdilution; conditions: Clostridioides difficile, HM745, C. difficile HM-745; for MBC: read-out: MBC; for MIC: read-out: MIC
Method: as §1

C. difficile NR-49285 = assay: MIC and MBC, broth microdilution; conditions: Clostridioides difficile, NR49285, C. difficile NR-49285; for MBC: read-out: MBC; for MIC: read-out: MIC
Method: as §1

C. difficile P20 = assay: MIC and MBC, broth microdilution; conditions: Clostridioides difficile, C. difficile P20; for MBC: read-out: MBC; for MIC: read-out: MIC
Method: as §1

C. difficile P3 = assay: MIC and MBC, broth microdilution; conditions: Clostridioides difficile, C. difficile P3; for MBC: read-out: MBC; for MIC: read-out: MIC
Method: as §1

C. difficile ATCC 1801 = assay: MIC and MBC, broth microdilution; conditions: Clostridioides difficile, ATCC1801, C. difficile ATCC 1801; for MBC: read-out: MBC; for MIC: read-out: MIC
Method: as §1

C. difficile I9 = assay: MIC and MBC, broth microdilution; conditions: Clostridioides difficile, C. difficile I9; for MBC: read-out: MBC; for MIC: read-out: MIC
Method: as §1

C. difficile P6 = assay: MIC and MBC, broth microdilution; conditions: Clostridioides difficile, C. difficile P6; for MBC: read-out: MBC; for MIC: read-out: MIC
Method: as §1

C. difficile P19 = assay: MIC and MBC, broth microdilution; conditions: Clostridioides difficile, C. difficile P19; for MBC: read-out: MBC; for MIC: read-out: MIC
Method: as §1

C. difficile P15 = assay: MIC and MBC, broth microdilution; conditions: Clostridioides difficile, C. difficile P15; for MBC: read-out: MBC; for MIC: read-out: MIC
Method: as §1

C. difficile ATCC 43255 [2] = assay: MIC and MBC, broth microdilution; conditions: Clostridioides difficile, ATCC43255, C. difficile ATCC 43255; for MBC: read-out: MBC; for MIC: read-out: MIC
Method: as §1

[3] = system: C. difficile ATCC BAA-1870; assay: Toxin A and B production inhibition, ELISA; conditions: for inhibition of total toxin production: 8 hours
Method: (§2) To investigate DIHQs toxin production inhibitory activity, toxin A and toxin B levels were measured as described previously. […] An aliquot from each tube was diluted and plated on BHIS agar plates and incubated anaerobically at 37° C. for 24 hours to detect the bacterial count. The total concentration of C. difficile toxin A and B was measured in the supernatant of each tube using enzyme linked immunosorbent assay (ELISA) kit (tgc BIOMICS, Dunwoody, GA) following the manufacturer's instructions. The (OD450-OD620) values, corresponding to the toxin concentration, were measured for DIHQ and control drugs.

C. difficile NR-49277 = assay: Toxin A and B production inhibition, ELISA; conditions: for inhibition of total toxin production: 8 hours
Method: as §2

C. difficile ATCC 43255 [4] = assay: Toxin A and B production inhibition, ELISA; conditions: for inhibition of total toxin production: 8 hours
Method: as §2

C. difficile I6 [5] = assay: Checkerboard assay, DIHQ with metronidazole or vancomycin
Method: (§3) Interactions between diiodohydroxyquinoline and the anticlostridial drugs (metronidazole and vancomycin) against Clostridium difficile clinical isolates. […] The fractional inhibitory concentration index (ΣFIC) was calculated for each interaction. Interactions where the ΣFIC index was ≤0.5 were categorized as synergistic (SYN).

C. difficile ATCC 9689 = assay: as above
Method: as §3

**Q.** Which results are given for CCc1c(Cl)c(O)c(Cl)c(O)c1C(=O)O[C@H]1[C@H](O)[C@H](OC)[C@H](OC/C2=C\C=C\C[C@H](O)/C(C)=C/[C@H](CC)[C@@H](O[C@@H]3OC(C)(C)[C@@H](OC(=O)C(C)C)[C@H](O)[C@@H]3O)/C(C)=C/C(C)=C/C[C@@H]([C@@H](C)O)OC2=O)O[C@@H]1C [Fidaxomicin, fidaxomicin]?
**A.** MBC (C. difficile P5): 0.03 µg/mL (≈ 0.0284 µM); MIC (C. difficile P5): 0.03 µg/mL (≈ 0.0284 µM); MBC (C. difficile NR-49278): 0.015 µg/mL (≈ 0.0142 µM); MIC (C. difficile NR-49278): 0.007 µg/mL (≈ 0.00662 µM); MBC (C. difficile I11): 0.015 µg/mL (≈ 0.0142 µM); MIC (C. difficile I11): 0.015 µg/mL (≈ 0.0142 µM); MBC (C. difficile I13): 0.03 µg/mL (≈ 0.0284 µM); MIC (C. difficile I13): 0.03 µg/mL (≈ 0.0284 µM); MBC (C. difficile P30): 0.007 µg/mL (≈ 0.00662 µM); MIC (C. difficile P30): 0.007 µg/mL (≈ 0.00662 µM); MBC (C. difficile I6 [1]): 0.06 µg/mL (≈ 0.0567 µM); MIC (C. difficile I6 [1]): 0.06 µg/mL (≈ 0.0567 µM); MBC (C. difficile I10): 0.03 µg/mL (≈ 0.0284 µM); MIC (C. difficile I10): 0.015 µg/mL (≈ 0.0142 µM); MBC (C. difficile NR-49288): 0.015 µg/mL (≈ 0.0142 µM); MIC (C. difficile NR-49288): 0.007 µg/mL (≈ 0.00662 µM); MBC (C. difficile HM-745): 0.125 µg/mL (≈ 0.118 µM); MIC (C. difficile HM-745): 0.06 µg/mL (≈ 0.0567 µM); MBC (C. difficile NR-49285): 0.03 µg/mL (≈ 0.0284 µM); MIC (C. difficile NR-49285): 0.015 µg/mL (≈ 0.0142 µM); MBC (C. difficile P20): 0.015 µg/mL (≈ 0.0142 µM); MIC (C. difficile P20): 0.015 µg/mL (≈ 0.0142 µM); MBC (C. difficile P3): 0.03 µg/mL (≈ 0.0284 µM); MIC (C. difficile P3): 0.015 µg/mL (≈ 0.0142 µM); MBC (C. difficile ATCC 1801): 0.125 µg/mL (≈ 0.118 µM); MIC (C. difficile ATCC 1801): 0.06 µg/mL (≈ 0.0567 µM); MBC (C. difficile I9): 0.03 µg/mL (≈ 0.0284 µM); MIC (C. difficile I9): 0.03 µg/mL (≈ 0.0284 µM); MBC (C. difficile P6): 0.003 µg/mL (≈ 0.00284 µM); MIC (C. difficile P6): 0.003 µg/mL (≈ 0.00284 µM); MBC (C. difficile P19): 0.06 µg/mL (≈ 0.0567 µM); MIC (C. difficile P19): 0.03 µg/mL (≈ 0.0284 µM); MBC (C. difficile P15): 0.06 µg/mL (≈ 0.0567 µM); MIC (C. difficile P15): 0.06 µg/mL (≈ 0.0567 µM); MBC (C. difficile ATCC 43255 [2]): 0.015 µg/mL (≈ 0.0142 µM); MIC (C. difficile ATCC 43255 [2]): 0.015 µg/mL (≈ 0.0142 µM); inhibition of total toxin production ([3]; C. difficile ATCC BAA-1870, ¼×MIC): 31.9%; inhibition of total toxin production ([3]; C. difficile ATCC BAA-1870, ½×MIC): 46.2%; inhibition of total toxin production (C. difficile NR-49277; C. difficile NR-49277, ¼×MIC): 58.8%; inhibition of total toxin production (C. difficile NR-49277; C. difficile NR-49277, ½×MIC): 67.4%; inhibition of total toxin production (C. difficile ATCC 43255 [4]; C. difficile ATCC 43255, ¼×MIC): 14.3%; inhibition of total toxin production (C. difficile ATCC 43255 [4]; C. difficile ATCC 43255, ½×MIC): 37%

**Q.** What does the source list for Cc1ncc([N+](=O)[O-])n1CCO [Metronidazole, metronidazole]?
**A.** MIC of metronidazole combined with DIHQ (C. difficile I6 [5]; C. difficile I6): 0.03 µg/mL; MIC (C. difficile I6 [5]; Clostridioides difficile, C. difficile I6, Table 3, read-out: MIC alone): 0.25 µg/mL; MIC of metronidazole combined with DIHQ (C. difficile ATCC 9689; C. difficile ATCC 9689): 0.03 µg/mL; MIC (C. difficile ATCC 9689; Clostridioides difficile, ATCC9689, C. difficile ATCC 9689, Table 3, read-out: MIC alone): 0.25 µg/mL; MBC (C. difficile P5): 0.25 µg/mL (≈ 1.46 µM); MIC (C. difficile P5): 0.25 µg/mL (≈ 1.46 µM); MBC (C. difficile NR-49278): 0.5 µg/mL (≈ 2.92 µM); MIC (C. difficile NR-49278): 0.25 µg/mL (≈ 1.46 µM); MBC (C. difficile I11): 0.25 µg/mL (≈ 1.46 µM); MIC (C. difficile I11): 0.25 µg/mL (≈ 1.46 µM); MBC (C. difficile I13): 0.5 µg/mL (≈ 2.92 µM); MIC (C. difficile I13): 0.25 µg/mL (≈ 1.46 µM); MBC (C. difficile P30): 0.5 µg/mL (≈ 2.92 µM); MIC (C. difficile P30): 0.5 µg/mL (≈ 2.92 µM); MBC (C. difficile I6 [1]): 0.25 µg/mL (≈ 1.46 µM); MIC (C. difficile I6 [1]): 0.25 µg/mL (≈ 1.46 µM); MBC (C. difficile I10): 0.25 µg/mL (≈ 1.46 µM); MIC (C. difficile I10): 0.25 µg/mL (≈ 1.46 µM); MBC (C. difficile NR-49288): 0.25 µg/mL (≈ 1.46 µM); MIC (C. difficile NR-49288): 0.25 µg/mL (≈ 1.46 µM); MBC (C. difficile HM-745): 0.5 µg/mL (≈ 2.92 µM); MIC (C. difficile HM-745): 0.5 µg/mL (≈ 2.92 µM); MBC (C. difficile NR-49285): 0.5 µg/mL (≈ 2.92 µM); MIC (C. difficile NR-49285): 0.25 µg/mL (≈ 1.46 µM); MBC (C. difficile P20): 0.25 µg/mL (≈ 1.46 µM); MIC (C. difficile P20): 0.25 µg/mL (≈ 1.46 µM); MBC (C. difficile P3): 0.25 µg/mL (≈ 1.46 µM); MIC (C. difficile P3): 0.25 µg/mL (≈ 1.46 µM); MBC (C. difficile ATCC 1801): 0.25 µg/mL (≈ 1.46 µM); MIC (C. difficile ATCC 1801): 0.25 µg/mL (≈ 1.46 µM); MBC (C. difficile I9): 0.06 µg/mL (≈ 0.351 µM); MIC (C. difficile I9): 0.06 µg/mL (≈ 0.351 µM); MBC (C. difficile P6): 0.25 µg/mL (≈ 1.46 µM); MIC (C. difficile P6): 0.25 µg/mL (≈ 1.46 µM); MBC (C. difficile P19): 0.25 µg/mL (≈ 1.46 µM); MIC (C. difficile P19): 0.25 µg/mL (≈ 1.46 µM); MBC (C. difficile P15): 0.25 µg/mL (≈ 1.46 µM); MIC (C. difficile P15): 0.25 µg/mL (≈ 1.46 µM); MBC (C. difficile ATCC 43255 [2]): 0.25 µg/mL (≈ 1.46 µM); MIC (C. difficile ATCC 43255 [2]): 0.25 µg/mL (≈ 1.46 µM); toxin inhibition (in words) ([3]; C. difficile ATCC BAA-1870, ¼×MIC and ½×MIC): No toxin inhibition; toxin inhibition (in words) (C. difficile NR-49277; C. difficile NR-49277, ¼×MIC and ½×MIC): No toxin inhibition; toxin inhibition (in words) (C. difficile ATCC 43255 [4]; C. difficile ATCC 43255, ¼×MIC and ½×MIC): No toxin inhibition
